Holding throughout (assay): NCI anticancer screen, dose series, 48 h
The test system of experiment [1] is M14 melanoma.
For experiment [2], the system named is UACC-62 melanoma.
The subject of experiment [3] is NCI-H23 lung.
Experiment [4] deals with SF-295 CNS.
Experiment [5] deals with CCRF-CEM leukemia.
Experiment [6] relates to PC-3 prostate.
The subject of experiment [7] is OVCAR-4 ovarian.
Experiment [8] concerns 786-0 renal.
Experiment [9] deals with ACHN renal.
The test system of experiment [10] is A498 renal.
Experiment [11] has as its system HOP-62 NSCLC.
In experiment [12] the test system is DU-145 prostate.
The test system of experiment [13] is LOX IMVI melanoma.
Experiment [14] relates to RXF 393 renal.
In experiment [15] the test system is SR leukemia.

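Test compounds were applied to cells in 96-well plates for 48 hours at 5 doses. GI50 = concentration required for 50% inhibition of growth. TGI denotes the concentration required for complete inhibition of growth.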 Where only a bound is given, the exact number is not on record here.

Turning to `O=C(O)c1ccc(N/C(=C(/C(Cl)=C(Cl)Cl)[N+](=O)[O-])n2nnc3ccccc32)cc1`, the TGI in [1], in [2], in experiment [3], in [4], in [5] and in [6] was greater than 100 µM each time. In addition, the TGI in [7], in [8], in experiment [9], in [10] and in [11] was greater than 100 µM each time.
On to `O=C(Nc1ccc(Cl)cc1)c1cc(S(=O)(=O)Nc2n[nH]c(=O)n2-c2ccccc2)c(S)cc1Cl`, for which the TGI in [1], in [2], in experiment [3], in experiment [12], in [13] and in experiment [4] was greater than 100 µM throughout. The TGI in [14], in experiment [15], in experiment [5], in experiment [7], in [8] and in experiment [10] was greater than 100 µM in each case. Besides, in experiment [11], the TGI is greater than 100 µM.
As to `CN(C)CN(C)c1nc(N(C)C)nc(N(C)CN(C)C)n1`, the TGI in experiment [1] is greater than 100 µM; in [2] it was 40.9 µM; in experiment [3], 95.8 µM; in experiment [13], 55.1 µM; in [4], greater than 100 µM; in [14], 38.9 µM. Moreover, the TGI in experiment [15] was 58.3 µM; in experiment [5], 61.1 µM; in experiment [7], greater than 100 µM; in experiment [8] it was greater than 100 µM; in experiment [9] it was greater than 100 µM; in experiment [10], greater than 100 µM. In experiment [11], this molecule gave a TGI greater than 100 µM.
As for `CCOC(=O)C(C)N1C(=O)c2ccccc2S1(=O)=O` (configuration not stated), the TGI in [2], in experiment [3], in [13], in experiment [4], in experiment [14] and in experiment [5] was greater than 100 µM in each case. Besides, the TGI in [7], in experiment [10] and in [11] was greater than 100 µM each time. Besides, the GI50 in experiment [14] is greater than 100 µM; in experiment [10], 29.1 µM.
As for `CCOC(=O)Cn1c(=O)c(C)cn(COCCO)c1=O`, the TGI in experiment [1], in experiment [3], in experiment [12], in [13], in experiment [14] and in [6] was greater than 100 µM in each case. The TGI in experiment [7], in [9], in experiment [10] and in experiment [11] was greater than 100 µM throughout.
For the molecule `CN1CCC2(CC1)C(=NC1CCCCC1)NC(=O)N2c1ccccc1`, the TGI in [1], in [2], in [3], in experiment [12], in experiment [4] and in experiment [14] was greater than 100 µM throughout. Also, the TGI in experiment [15], in [5], in experiment [8], in experiment [9], in experiment [10] and in [11] was greater than 100 µM each time.
With `Cc1ccc(S[C@@H](C)[C@@](O)(C(N)=O)c2ccccc2)cc1`, the TGI in [1] is greater than 100 µM; in experiment [2], greater than 100 µM; in experiment [3], greater than 100 µM; in [12], greater than 100 µM; in experiment [13], 33.7 µM; in experiment [4], 41.9 µM. In addition, the TGI is greater than 100 µM in experiment [14]; 26.2 µM in experiment [5]; greater than 100 µM in [6]; 46.3 µM in experiment [7]; greater than 100 µM in experiment [8]; greater than 100 µM in experiment [9]. The same molecule showed a TGI in [11] of 62.6 µM.
Take `CN/N=C(\C(=O)Nc1ccc(C)c(C)c1)C(C(=O)OC)c1nc2ccc([N+](=O)[O-])cc2[nH]c1=O` (configuration not stated): the TGI in experiment [1], in experiment [2], in [3], in [13], in experiment [4] and in [14] was greater than 100 µM throughout. Also, the TGI in experiment [15], in [5], in [7], in experiment [9], in experiment [10] and in experiment [11] was greater than 100 µM each time.
For the molecule `CC(=O)OCC1OC(n2c(-c3ccccc3)c(N=Nc3ccc(C)cc3)c(C)c(C#N)c2=S)C(OC(C)=O)C(OC(C)=O)C1OC(C)=O` (configuration not stated), the TGI is 16.8 µM in experiment [1]; 42.1 µM in [3]; greater than 100 µM in experiment [12]; 64.1 µM in [13]; 97.2 µM in experiment [4]; 50.7 µM in experiment [14]. Also, the TGI in experiment [15] was greater than 100 µM; in experiment [5], greater than 100 µM; in [7], 25.1 µM; in experiment [8], 12.5 µM; in experiment [9], greater than 100 µM; in [10], 18.4 µM. The TGI in experiment [11] amounted to 50.1 µM.
Take `CN1CN(C(=O)N2CN(C)C(=O)N(C)C2)CN(C)C1=O`: the TGI in experiment [1], in experiment [2], in [13], in [4], in experiment [5] and in [9] was greater than 100 µM throughout. The TGI in [10] and in experiment [11] was greater than 100 µM each time.
In the case of `CCOC(=O)C1=C(C)N(C2OC(COC(=O)c3ccccc3)C(OC(=O)c3ccccc3)C2OC(=O)c2ccccc2)C(=S)NC1c1ccccc1` (configuration not stated), the TGI in experiment [1] is 93.2 µM; in experiment [2], greater than 100 µM; in [3], greater than 100 µM; in experiment [13], greater than 100 µM; in [4], greater than 100 µM; in [15] it was 73.2 µM. Besides, the TGI in [5], in experiment [7], in experiment [9], in experiment [10] and in experiment [11] was greater than 100 µM each time.
